This is an account of results in ChEMBL document CHEMBL1145498, “A systematic interaction map of validated kinase inhibitors with Ser/Thr kinases” (Proc Natl Acad Sci U S A, 2007).

Structures are written as SMILES.

Assay [1] addresses Calcium/calmodulin-dependent protein kinase type 1D (Homo sapiens) (UniProt Q8IU85).
The target in assay [2] is Calcium/calmodulin-dependent protein kinase type 1G (Homo sapiens) (UniProt Q96NX5).
The target of assay [3] is Cyclin-dependent kinase 6 (Homo sapiens) (UniProt Q00534).
Assay [4] concerns the target Dual specificity protein kinase CLK1 (Homo sapiens) (UniProt P49759).
The target of assay [5] is Death-associated protein kinase 3 (Homo sapiens) (UniProt O43293).
Assay [6] has as its target Dual specificity mitogen-activated protein kinase kinase 2 (Homo sapiens, UniProt P36507).
The target of assay [7] is Mitogen-activated protein kinase 3 (Homo sapiens, UniProt P27361).
Assay [8] has as its target T1, Serine/threonine-protein kinase Nek2 (Homo sapiens) (UniProt P51955).
T1 sequence (whole entry): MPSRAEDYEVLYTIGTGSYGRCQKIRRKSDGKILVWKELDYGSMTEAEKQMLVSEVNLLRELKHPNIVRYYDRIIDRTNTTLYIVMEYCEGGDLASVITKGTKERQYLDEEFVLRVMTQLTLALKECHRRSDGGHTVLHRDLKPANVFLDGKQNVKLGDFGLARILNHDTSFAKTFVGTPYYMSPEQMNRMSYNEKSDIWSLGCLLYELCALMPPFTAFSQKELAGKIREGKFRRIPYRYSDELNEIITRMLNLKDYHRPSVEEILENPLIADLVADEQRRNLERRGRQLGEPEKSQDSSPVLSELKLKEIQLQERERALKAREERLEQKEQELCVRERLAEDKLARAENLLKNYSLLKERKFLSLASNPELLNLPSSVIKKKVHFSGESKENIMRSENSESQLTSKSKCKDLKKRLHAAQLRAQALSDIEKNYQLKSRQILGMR

The target in assay [9] is Serine/threonine-protein kinase Nek6 (Homo sapiens) (UniProt Q9HC98).
For assay [10], the target named is Serine/threonine-protein kinase OSR1 (Homo sapiens) (UniProt O95747).
For assay [11], the target named is T2, 3-phosphoinositide-dependent protein kinase 1 (Homo sapiens) (UniProt O15530).
T2 sequence (whole entry): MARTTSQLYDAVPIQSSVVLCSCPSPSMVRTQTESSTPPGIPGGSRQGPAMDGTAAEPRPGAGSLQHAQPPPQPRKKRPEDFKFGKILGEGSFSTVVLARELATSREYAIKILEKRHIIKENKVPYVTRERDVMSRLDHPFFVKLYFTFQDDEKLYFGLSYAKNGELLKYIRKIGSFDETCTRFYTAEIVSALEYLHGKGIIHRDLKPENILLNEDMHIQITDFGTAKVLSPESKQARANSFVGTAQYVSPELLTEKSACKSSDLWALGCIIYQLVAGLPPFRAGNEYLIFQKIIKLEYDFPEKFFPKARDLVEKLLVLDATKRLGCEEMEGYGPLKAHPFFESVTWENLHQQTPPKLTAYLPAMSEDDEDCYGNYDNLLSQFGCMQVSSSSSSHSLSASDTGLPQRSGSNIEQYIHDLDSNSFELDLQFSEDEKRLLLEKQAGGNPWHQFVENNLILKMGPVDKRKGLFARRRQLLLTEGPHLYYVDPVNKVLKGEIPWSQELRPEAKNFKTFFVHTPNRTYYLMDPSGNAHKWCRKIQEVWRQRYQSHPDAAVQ

Assay [12] concerns the target cAMP-dependent protein kinase catalytic subunit alpha (Homo sapiens) (UniProt P17612).
The target of assay [13] is Serine/threonine-protein kinase RIO2 (Homo sapiens) (UniProt Q9BVS4).
Assay [14] concerns the target Ribosomal protein S6 kinase alpha-3 (Homo sapiens) (UniProt P51812).
For assay [15], the target named is STE20-like serine/threonine-protein kinase (Homo sapiens) (UniProt Q9H2G2).
Assay [16] deals with Serine/threonine-protein kinase 16 (Homo sapiens) (UniProt O75716).
Assay [17] deals with Serine/threonine-protein kinase 38 (Homo sapiens) (UniProt Q15208).
In assay [18] the target is T3, Serine/threonine-protein kinase 4 (Homo sapiens) (UniProt Q13043).
T3 sequence (whole entry): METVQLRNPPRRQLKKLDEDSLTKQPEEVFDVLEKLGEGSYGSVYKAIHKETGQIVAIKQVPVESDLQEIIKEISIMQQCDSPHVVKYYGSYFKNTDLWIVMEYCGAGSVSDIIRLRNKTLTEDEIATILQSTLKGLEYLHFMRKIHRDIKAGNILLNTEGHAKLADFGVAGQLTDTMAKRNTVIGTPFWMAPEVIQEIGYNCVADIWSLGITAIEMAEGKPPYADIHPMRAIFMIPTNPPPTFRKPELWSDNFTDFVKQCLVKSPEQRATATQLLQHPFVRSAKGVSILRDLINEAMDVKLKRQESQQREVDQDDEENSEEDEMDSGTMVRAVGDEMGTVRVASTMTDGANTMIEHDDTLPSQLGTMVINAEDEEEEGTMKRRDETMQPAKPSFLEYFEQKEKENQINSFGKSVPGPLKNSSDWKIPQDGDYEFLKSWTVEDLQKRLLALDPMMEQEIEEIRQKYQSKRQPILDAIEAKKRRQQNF

For assay [19], the target named is T4, Lymphokine-activated killer T-cell-originated protein kinase (Homo sapiens) (UniProt Q96KB5).
T4 sequence (whole entry): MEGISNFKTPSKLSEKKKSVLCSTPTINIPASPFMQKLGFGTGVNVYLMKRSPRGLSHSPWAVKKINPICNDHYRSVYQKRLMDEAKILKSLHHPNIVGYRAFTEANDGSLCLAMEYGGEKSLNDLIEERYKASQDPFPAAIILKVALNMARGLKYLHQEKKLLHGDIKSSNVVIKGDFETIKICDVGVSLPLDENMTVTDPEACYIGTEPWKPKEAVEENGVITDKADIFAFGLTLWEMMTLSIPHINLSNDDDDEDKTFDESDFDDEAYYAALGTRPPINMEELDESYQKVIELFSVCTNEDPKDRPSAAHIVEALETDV

For assay [20], the target named is Serine/threonine-protein kinase VRK2 (Homo sapiens) (UniProt Q86Y07).

Cyclin-dependent kinase 6 (Homo sapiens), sequence (Q00534 whole entry): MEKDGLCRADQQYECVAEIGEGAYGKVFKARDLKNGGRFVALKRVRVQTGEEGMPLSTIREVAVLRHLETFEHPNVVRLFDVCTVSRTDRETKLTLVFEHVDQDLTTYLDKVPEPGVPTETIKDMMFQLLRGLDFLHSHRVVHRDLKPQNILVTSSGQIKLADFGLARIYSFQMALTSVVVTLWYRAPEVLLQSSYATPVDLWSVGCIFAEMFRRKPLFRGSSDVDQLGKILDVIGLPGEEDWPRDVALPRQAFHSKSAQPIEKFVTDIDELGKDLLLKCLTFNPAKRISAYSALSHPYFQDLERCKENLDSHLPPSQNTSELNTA
Dual specificity protein kinase CLK1 (Homo sapiens), sequence (P49759 whole entry, looked up): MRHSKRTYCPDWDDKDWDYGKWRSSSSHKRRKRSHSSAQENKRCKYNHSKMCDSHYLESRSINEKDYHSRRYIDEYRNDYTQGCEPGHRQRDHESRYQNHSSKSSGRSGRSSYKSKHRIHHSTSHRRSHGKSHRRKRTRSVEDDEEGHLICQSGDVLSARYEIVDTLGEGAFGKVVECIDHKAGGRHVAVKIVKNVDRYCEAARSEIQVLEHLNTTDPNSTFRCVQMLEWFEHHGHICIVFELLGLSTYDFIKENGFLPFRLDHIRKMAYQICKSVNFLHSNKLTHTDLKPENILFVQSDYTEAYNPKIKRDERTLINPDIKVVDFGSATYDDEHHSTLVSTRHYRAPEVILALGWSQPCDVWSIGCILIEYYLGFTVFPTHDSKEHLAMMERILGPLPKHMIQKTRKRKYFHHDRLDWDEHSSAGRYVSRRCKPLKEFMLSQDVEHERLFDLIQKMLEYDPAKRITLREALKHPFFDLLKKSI
Serine/threonine-protein kinase RIO2 (Homo sapiens), sequence (Q9BVS4 whole entry, looked up): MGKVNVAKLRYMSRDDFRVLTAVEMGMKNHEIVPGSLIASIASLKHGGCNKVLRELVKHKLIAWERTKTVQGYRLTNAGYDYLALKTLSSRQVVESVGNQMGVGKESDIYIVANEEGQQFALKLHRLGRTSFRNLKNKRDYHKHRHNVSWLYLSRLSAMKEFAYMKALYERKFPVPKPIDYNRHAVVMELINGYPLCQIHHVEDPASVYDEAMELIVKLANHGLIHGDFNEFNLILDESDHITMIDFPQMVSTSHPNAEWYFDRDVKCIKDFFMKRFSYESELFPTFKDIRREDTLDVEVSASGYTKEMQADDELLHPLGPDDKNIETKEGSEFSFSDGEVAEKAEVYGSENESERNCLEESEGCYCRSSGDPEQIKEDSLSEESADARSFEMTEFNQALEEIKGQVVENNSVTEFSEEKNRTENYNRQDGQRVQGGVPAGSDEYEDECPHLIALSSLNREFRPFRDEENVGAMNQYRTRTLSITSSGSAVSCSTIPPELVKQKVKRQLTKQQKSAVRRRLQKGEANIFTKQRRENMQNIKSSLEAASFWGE
Calcium/calmodulin-dependent protein kinase type 1G (Homo sapiens), sequence (Q96NX5 whole entry): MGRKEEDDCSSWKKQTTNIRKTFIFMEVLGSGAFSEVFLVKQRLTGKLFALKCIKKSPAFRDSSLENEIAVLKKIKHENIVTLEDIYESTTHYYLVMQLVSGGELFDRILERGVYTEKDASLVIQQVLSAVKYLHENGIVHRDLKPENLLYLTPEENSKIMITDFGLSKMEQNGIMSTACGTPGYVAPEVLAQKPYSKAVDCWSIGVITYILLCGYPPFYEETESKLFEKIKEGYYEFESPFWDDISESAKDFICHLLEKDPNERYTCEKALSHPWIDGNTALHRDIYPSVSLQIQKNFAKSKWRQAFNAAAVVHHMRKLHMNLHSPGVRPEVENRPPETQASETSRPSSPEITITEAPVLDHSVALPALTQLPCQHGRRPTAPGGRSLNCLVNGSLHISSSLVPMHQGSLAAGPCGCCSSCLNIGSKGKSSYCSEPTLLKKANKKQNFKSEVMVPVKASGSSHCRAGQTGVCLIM
Serine/threonine-protein kinase OSR1 (Homo sapiens), sequence (O95747 2-527 limits assumed): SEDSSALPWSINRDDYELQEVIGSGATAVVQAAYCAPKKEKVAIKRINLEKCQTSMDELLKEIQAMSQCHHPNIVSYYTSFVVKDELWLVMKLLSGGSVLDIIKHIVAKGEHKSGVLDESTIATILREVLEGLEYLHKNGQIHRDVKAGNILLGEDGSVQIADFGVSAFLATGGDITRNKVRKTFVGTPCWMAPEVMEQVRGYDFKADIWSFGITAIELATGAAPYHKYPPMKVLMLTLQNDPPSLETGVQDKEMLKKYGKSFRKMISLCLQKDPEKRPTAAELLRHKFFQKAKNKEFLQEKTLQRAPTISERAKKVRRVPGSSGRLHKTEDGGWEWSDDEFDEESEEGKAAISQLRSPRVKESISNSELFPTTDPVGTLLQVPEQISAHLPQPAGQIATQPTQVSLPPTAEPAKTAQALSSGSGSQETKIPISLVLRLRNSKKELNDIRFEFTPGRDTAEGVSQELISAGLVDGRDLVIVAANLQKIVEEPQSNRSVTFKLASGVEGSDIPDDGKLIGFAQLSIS
Serine/threonine-protein kinase Nek6 (Homo sapiens), sequence (Q9HC98 whole entry): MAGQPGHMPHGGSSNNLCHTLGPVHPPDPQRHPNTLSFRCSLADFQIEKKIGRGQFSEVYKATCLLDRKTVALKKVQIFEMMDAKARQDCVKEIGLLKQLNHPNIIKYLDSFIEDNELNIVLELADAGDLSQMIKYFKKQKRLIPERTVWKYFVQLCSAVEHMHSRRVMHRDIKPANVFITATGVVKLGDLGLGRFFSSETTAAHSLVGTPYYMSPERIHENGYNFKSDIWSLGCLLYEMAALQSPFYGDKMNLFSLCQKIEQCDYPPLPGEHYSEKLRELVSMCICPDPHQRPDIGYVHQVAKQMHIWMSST
STE20-like serine/threonine-protein kinase (Homo sapiens), sequence (Q9H2G2 whole entry, looked up): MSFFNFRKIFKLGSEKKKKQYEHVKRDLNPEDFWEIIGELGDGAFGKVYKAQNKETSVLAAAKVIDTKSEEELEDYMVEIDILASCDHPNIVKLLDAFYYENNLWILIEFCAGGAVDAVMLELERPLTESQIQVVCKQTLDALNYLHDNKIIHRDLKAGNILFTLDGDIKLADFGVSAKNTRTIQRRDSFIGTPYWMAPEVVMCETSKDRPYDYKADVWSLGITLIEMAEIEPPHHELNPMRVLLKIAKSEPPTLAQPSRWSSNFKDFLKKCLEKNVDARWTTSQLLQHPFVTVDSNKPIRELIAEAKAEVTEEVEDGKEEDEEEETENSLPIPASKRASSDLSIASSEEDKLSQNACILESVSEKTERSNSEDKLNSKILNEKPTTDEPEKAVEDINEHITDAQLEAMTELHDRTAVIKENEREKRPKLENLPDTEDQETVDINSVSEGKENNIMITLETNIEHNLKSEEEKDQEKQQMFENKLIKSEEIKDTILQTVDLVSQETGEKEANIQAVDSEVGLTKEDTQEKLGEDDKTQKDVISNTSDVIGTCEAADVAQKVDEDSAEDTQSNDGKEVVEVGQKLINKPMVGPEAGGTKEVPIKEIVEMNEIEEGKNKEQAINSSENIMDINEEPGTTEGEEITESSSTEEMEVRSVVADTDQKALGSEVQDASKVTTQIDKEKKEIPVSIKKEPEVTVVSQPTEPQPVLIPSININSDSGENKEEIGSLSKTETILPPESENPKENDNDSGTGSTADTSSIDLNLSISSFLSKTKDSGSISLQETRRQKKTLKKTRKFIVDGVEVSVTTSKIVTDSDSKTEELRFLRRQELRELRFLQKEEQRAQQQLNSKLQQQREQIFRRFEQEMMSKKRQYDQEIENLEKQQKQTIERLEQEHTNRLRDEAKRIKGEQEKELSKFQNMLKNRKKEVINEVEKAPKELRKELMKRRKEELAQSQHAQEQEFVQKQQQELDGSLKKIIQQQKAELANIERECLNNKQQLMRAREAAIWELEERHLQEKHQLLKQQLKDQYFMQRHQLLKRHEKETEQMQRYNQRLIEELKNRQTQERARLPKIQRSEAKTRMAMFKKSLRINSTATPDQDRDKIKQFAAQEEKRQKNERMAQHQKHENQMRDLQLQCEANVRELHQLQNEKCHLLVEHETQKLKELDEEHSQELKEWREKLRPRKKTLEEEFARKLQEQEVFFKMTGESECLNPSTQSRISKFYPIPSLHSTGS
Serine/threonine-protein kinase 16 (Homo sapiens), sequence (O75716 whole entry): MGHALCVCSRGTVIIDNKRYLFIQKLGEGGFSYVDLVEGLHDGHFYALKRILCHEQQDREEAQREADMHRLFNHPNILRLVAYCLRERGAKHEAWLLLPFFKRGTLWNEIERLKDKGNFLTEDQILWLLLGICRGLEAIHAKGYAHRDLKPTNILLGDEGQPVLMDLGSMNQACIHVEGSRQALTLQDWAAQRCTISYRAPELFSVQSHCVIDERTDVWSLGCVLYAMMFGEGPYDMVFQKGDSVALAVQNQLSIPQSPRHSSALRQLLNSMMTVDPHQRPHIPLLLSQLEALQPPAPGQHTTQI
Calcium/calmodulin-dependent protein kinase type 1D (Homo sapiens), sequence (Q8IU85 whole entry, looked up): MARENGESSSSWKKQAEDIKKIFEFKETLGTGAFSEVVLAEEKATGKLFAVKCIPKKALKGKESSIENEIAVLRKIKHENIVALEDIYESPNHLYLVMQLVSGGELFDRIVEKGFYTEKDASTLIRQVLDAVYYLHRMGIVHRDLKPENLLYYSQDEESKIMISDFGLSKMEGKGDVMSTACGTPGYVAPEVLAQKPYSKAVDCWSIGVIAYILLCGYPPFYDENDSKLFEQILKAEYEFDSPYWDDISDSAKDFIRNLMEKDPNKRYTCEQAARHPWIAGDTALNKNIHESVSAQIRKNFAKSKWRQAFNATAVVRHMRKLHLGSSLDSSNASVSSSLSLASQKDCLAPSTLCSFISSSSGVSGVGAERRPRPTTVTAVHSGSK
Mitogen-activated protein kinase 3, sequence (P27361 whole entry): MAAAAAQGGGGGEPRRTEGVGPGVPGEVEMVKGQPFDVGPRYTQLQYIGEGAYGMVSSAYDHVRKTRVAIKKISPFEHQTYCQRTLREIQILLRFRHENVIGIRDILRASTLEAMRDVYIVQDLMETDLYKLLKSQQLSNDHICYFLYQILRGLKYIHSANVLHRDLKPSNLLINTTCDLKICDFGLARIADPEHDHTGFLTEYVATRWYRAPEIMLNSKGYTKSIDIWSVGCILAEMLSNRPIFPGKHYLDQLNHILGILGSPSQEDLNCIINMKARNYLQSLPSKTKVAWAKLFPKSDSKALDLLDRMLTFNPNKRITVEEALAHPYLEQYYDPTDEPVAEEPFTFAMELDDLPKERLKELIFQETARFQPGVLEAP

On to `CCCCc1c(-c2ccc(O)cc2)[nH]c2nccnc12` [ALOISINE A], for which the ΔTm in assay [1] amounted to 1.2 °C; in assay [2], 0.6 °C; in [3] it was 1.3 °C; in assay [4], 3.5 °C; in assay [5] it was 2.3 °C; in assay [6] it was 2.1 °C. Moreover, the thermal shift (ΔTm) in [7] was 0.5 °C; in [8], -0.4 °C; in [9] it was 2.9 °C; in [10] it was 1.6 °C; in [11] it was 4 °C; in [12], 3.8 °C. Further, the thermal shift (ΔTm) is -1.8 °C in assay [13]; 3 °C in [14]; 6.8 °C in assay [15]; 2.6 °C in [16]; 4 °C in assay [17]; -0.2 °C in assay [18]. Further, the ΔTm is 0.7 °C in [19] and 4.2 °C in [20].
Take `O=C1Nc2ccccc2/C1=C\c1ccc[nH]1`: the shift in melting temperature (ΔTm) in assay [1] is 1.3 °C; in [2], 1.9 °C; in [3], 2.6 °C; in [4], 2.7 °C; in assay [5] it was -0.2 °C; in assay [6], 2.4 °C. The ΔTm stood at 0.3 °C in assay [7]; 1.7 °C in [8]; 0 °C in assay [9]; 2.7 °C in [10]; 0.9 °C in [11]; 1.7 °C in assay [12]. Moreover, the ΔTm in assay [13] is 3 °C; in assay [15], 3.1 °C; in assay [16], 4.3 °C; in [17] it was 2.7 °C; in [18], 7.7 °C; in [19], -0.5 °C. Besides, the ΔTm in assay [20] stood at 3.4 °C.
On to `Oc1cc(O)cc(/C=C/c2ccc(O)c(O)c2)c1` [PICEATANNOL], for which the ΔTm in [1] turned out to be 1.1 °C; in [2], 0.5 °C; in assay [3], 0.3 °C; in assay [4], 0.9 °C; in assay [5] it was 4.6 °C; in assay [6] it was 0.2 °C. In addition, the ΔTm in assay [7] was 0.2 °C; in assay [8], 1.1 °C; in assay [9], 0.6 °C; in assay [10], 1.6 °C; in assay [11] it was -0.4 °C; in assay [12], 2.7 °C. The ΔTm in assay [13] was found to be 0.6 °C; in assay [15], 1.6 °C; in [16], 4.4 °C; in assay [17], 1.7 °C; in [18], 0.3 °C; in [19] it was 0 °C. The ΔTm in [20] is -0.4 °C.
As to `CCN1/C(=C/C(C)=O)Sc2ccc(OC)cc21`, the ΔTm in assay [1] is 0 °C; in [2], -0.5 °C; in [3], 0.4 °C; in assay [5], 0.9 °C; in assay [6], 0.5 °C; in assay [7] it was -0.4 °C. The ΔTm was 0.8 °C in assay [8]; -1 °C in assay [9]; 0.1 °C in [10]; 0.2 °C in assay [11]; -0.5 °C in assay [12]; -0.2 °C in [13]. Also, the ΔTm is 0.4 °C in assay [14]; 0.7 °C in assay [15]; 1.7 °C in [16]; 0.5 °C in [17]; 0.1 °C in assay [18]; 1.1 °C in [19]. Further, the thermal shift (ΔTm) in [20] came out at 0.4 °C.
On to `Cc1[nH]c(/C=C2\C(=O)Nc3ccc(S(=O)(=O)N(C)c4cccc(Cl)c4)cc32)c(C)c1C(=O)N1CCN(C)CC1`, for which the ΔTm in [1] was 0.4 °C; in assay [2], 1.7 °C; in assay [3] it was -0.4 °C; in assay [4] it was 2.1 °C; in assay [5] it was 2.6 °C; in [6], 1 °C. Also, the ΔTm in assay [7] is 0.1 °C; in assay [8], 0.1 °C; in assay [9], 0.4 °C; in assay [10] it was 1.6 °C; in assay [11], -0.6 °C; in [12] it was 3.1 °C. Besides, the ΔTm in [13] came to 1.4 °C; in assay [14] it was 7.7 °C; in assay [15] it was 2.4 °C; in assay [16], 0.6 °C; in assay [17], 4.2 °C; in assay [18], 0.1 °C. In [19], the ΔTm was determined as 0.1 °C.
Turning to `CN(C)C[C@@H]1CCn2cc(c3ccccc32)C2=C(C(=O)NC2=O)c2cn(c3ccccc23)CCO1` [RUBOXISTAURIN], the ΔTm in assay [2] amounted to 0.1 °C; in assay [3] it was 0.5 °C; in [4], 5.4 °C; in assay [5] it was 1.1 °C; in assay [6], 0.1 °C; in assay [7] it was 0.5 °C. Moreover, the ΔTm is 1.5 °C in assay [8]; -0.6 °C in assay [9]; -0.5 °C in [10]; 0.2 °C in assay [11]; 1.8 °C in [13]; 8.1 °C in assay [14]. Besides, the thermal shift (ΔTm) in assay [15] amounted to 7 °C; in assay [16], 0.8 °C; in assay [17], 0 °C; in assay [18], 0.6 °C; in [19], 0.9 °C; in assay [20], 1 °C.
Turning to `COc1cc2c(cc1OC)-c1n[nH]c(Nc3cccc(F)c3)c1C2`, the ΔTm was found to be 0.3 °C in assay [1]; 1.6 °C in assay [2]; 1.7 °C in [3]; 0.1 °C in [4]; 0.2 °C in assay [5]; 0.7 °C in [6]. Further, the ΔTm in assay [7] was 0.6 °C; in assay [8] it was 0.6 °C; in assay [9], 0.1 °C; in assay [10] it was 0.6 °C; in assay [11] it was -0.2 °C; in [12], 0.9 °C. Besides, the ΔTm was -0.2 °C in assay [13]; 2.2 °C in assay [14]; 2.1 °C in assay [15]; 0.4 °C in [16]; 2.4 °C in assay [17]; 0.7 °C in assay [18]. In addition, the ΔTm in assay [19] came to 0.2 °C.

By ΔTm is commonly meant the change in melting temperature against a reference sample.
